Source: article PMC5120204, “Identification of an orally active small-molecule PTHR1 agonist for the treatment of hypoparathyroidism” (Nature Communications, 2016)

Target: T1, hPTHR2 (Homo sapiens, UniProt P49190)
T1 construct: expressed in transfected cells; host or cells: COS-7 (transient)
Test: cAMP production assay in COS-7 cells expressing hPTHR2
Assay type: cell-based
Details: COS-7 cells expressing human PTHR2
Method: COS-7 cells (ATCC) were seeded into a 96-well flat-bottomed plate (1.4 × 10^4 cells per 100 μl per well) and incubated overnight. The next day, the COS-7 cells were transfected by adding 10 μl of a mixture of hPTHR1, hPTHR2 or mutant hPTHR1 plasmid, rat PTHR1 or rat PTHR2 plasmid, or empty vector (0.1 μg per well), FuGENE HD Transfection Reagent (0.4 μl per well, Promega), and Opti-MEM I Reduced Serum Medium (10 μl per well, Life Technologies) to each well. […] The plate was placed in a 37 °C constant-temperature water bath for 20 min to allow the reaction to proceed. After incubation, the liquid in the wells was discarded, the wells were washed with the assay medium (100 μl per well), and the plate was frozen on dry ice. Next, 40 μl of 50 mmol l^−1 HCl was added to each well, and the plate was stored in a freezer set at ≤−20 °C. The cAMP concentrations were measured by using a cAMP EIA kit (GE Healthcare). EC50 values were determined from three independent experiments in duplicate by a non-linear regression Emax model (JMP ver.9.0.2, SAS Institute). The geometric mean of the EC50 values obtained in three experiments in duplicate was calculated using Microsoft Office Excel 2007. […]

T1 sequence (P49190 25-550): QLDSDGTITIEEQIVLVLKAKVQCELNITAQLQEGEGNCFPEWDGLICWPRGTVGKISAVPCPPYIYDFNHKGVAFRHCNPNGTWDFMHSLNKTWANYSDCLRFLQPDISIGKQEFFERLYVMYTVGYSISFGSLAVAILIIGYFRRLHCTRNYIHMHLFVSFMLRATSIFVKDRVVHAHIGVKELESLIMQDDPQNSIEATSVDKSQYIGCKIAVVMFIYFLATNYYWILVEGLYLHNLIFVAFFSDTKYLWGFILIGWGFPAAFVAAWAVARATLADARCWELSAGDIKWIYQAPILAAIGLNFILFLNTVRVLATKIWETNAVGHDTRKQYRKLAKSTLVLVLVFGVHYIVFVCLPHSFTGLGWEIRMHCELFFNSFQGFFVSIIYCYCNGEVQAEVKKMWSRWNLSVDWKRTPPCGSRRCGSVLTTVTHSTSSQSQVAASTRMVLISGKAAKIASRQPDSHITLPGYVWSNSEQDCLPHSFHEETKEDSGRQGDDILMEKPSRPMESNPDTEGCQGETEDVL

For `Cc1cc(N2C(=O)NC(=O)C2(C)C)cc(C)c1CCS(=O)(=O)N1CCC2(CC1)N=C(c1ccc(OC(F)(F)F)cc1)NC2=O` [PCO371, 1-{3,5-dimethyl-4-[2-({4-oxo-2-[4-(trifluoromethoxy)phenyl]-1,3,8-triazaspiro[4.5]dec-1-en-8-yl}sulfonyl)ethyl]phenyl}-5,5-dimethylimidazolidine-2,4-dione], which cAMP production is on record?
The cAMP production was “did not stimulate cAMP production”.
